Measured values reported in ChEMBL document CHEMBL5154839, “Discovery of a selective and covalent small-molecule inhibitor of BFL-1 protein that induces robust apoptosis in cancer cells” (Eur J Med Chem, 2022).
Each block holds one compound with its values, some of them ahead of it.

Legend:
Bcl-2-related protein A1 [1] = molecular target: T1, Bcl-2-related protein A1 (Homo sapiens, UniProt Q16548); test: Displacement of fluorescein tagged BID BH3 peptide from His-tagged recombinant BFL-1 (1 to 151 residues) (unknown origin) expressed in Escherichia coli BL21 (DE3) assessed as inhibition constant incubated for 24 hrs by fluorescence polarization-based competitive binding assay
T1 sequence (Q16548 whole entry): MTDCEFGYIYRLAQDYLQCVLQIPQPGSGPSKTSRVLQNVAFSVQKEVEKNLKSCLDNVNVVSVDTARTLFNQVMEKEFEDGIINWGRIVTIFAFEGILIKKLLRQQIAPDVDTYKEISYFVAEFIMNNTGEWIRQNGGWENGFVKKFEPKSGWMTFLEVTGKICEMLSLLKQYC

U-937 [2] = test: Induction of apoptosis in human U-937 cells assessed as necrotic cells at 60 uM measured after 4 hrs by Annexin PI staining based flow cytometry method (reference value: 0.00 %); format: functional
U-937 [3] = test: Induction of apoptosis in human U-937 cells assessed as late apoptotic cells at 10 uM measured after 4 hrs by Annexin PI staining based flow cytometry method (reference value: 1.62 %); format: functional
K562 = test: Growth inhibition of human K562 cells incubated for 4 days by WST assay; format: functional, cell-based; settings: K562, 96 h
U-937 [4] = test: Induction of apoptosis in human U-937 cells assessed as early apoptotic cells at 40 uM measured after 4 hrs by Annexin PI staining based flow cytometry method (reference value: 1.95 %); format: functional
U-937 [5] = test: Induction of apoptosis in human U-937 cells assessed as late apoptotic cells at 40 uM measured after 4 hrs by Annexin PI staining based flow cytometry method (reference value: 1.62 %); format: functional
U-937 [6] = test: Induction of apoptosis in human U-937 cells assessed as early apoptotic cells at 20 uM measured after 4 hrs by Annexin PI staining based flow cytometry method (reference value: 1.95 %); format: functional
U-937 [7] = test: Induction of apoptosis in human U-937 cells assessed as necrotic cells at 40 uM measured after 4 hrs by Annexin PI staining based flow cytometry method (reference value: 0.00 %); format: functional
U-937 [8] = test: Induction of apoptosis in human U-937 cells assessed as early apoptotic cells at 10 uM measured after 4 hrs by Annexin PI staining based flow cytometry method (reference value: 1.95 %); format: functional
U-937 [9] = test: Induction of apoptosis in human U-937 cells assessed as late apoptotic cells at 20 uM measured after 4 hrs by Annexin PI staining based flow cytometry method (reference value: 1.62 %); format: functional
RPMI-8226 = test: Growth inhibition of human RPMI-8226 cells incubated for 4 days by WST assay; format: functional, cell-based; settings: RPMI-8226, 96 h
MV4-11 = test: Growth inhibition of human MV4-11 cells incubated for 4 days by WST assay; format: functional, cell-based; settings: MV4-11, 96 h
MM1.S = test: Growth inhibition of human MM1.S cells incubated for 4 days by WST assay; format: functional, cell-based; settings: 96 h
U-937 [10] = test: Growth inhibition of human U-937 cells incubated for 4 days by WST assay; format: functional, cell-based; settings: U-937, 96 h
U-937 [11] = test: Induction of apoptosis in human U-937 cells assessed as early apoptotic cells at 60 uM measured after 4 hrs by Annexin PI staining based flow cytometry method (reference value: 1.95 %); format: functional
U-937 [12] = test: Induction of apoptosis in human U-937 cells assessed as late apoptotic cells at 60 uM measured after 4 hrs by Annexin PI staining based flow cytometry method (reference value: 1.62 %); format: functional
[13] = Displacement of fluorescein tagged BID BH3 peptide from His-tagged recombinant BFL-1 (1 to 151 residues) C55A mutant (unknown origin) expressed in Escherichia coli BL21 (DE3) assessed as inhibition constant incubated for 24 hrs by fluorescence polarization-based competitive binding assay; parameters: species or system Homo sapiens
U-937 [14] = test: Induction of apoptosis in human U-937 cells assessed as necrotic cells at 10 uM measured after 4 hrs by Annexin PI staining based flow cytometry method (reference value: 0.00 %); format: functional
HL-60 = test: Growth inhibition of human HL-60 cells incubated for 4 days by WST assay; format: functional, cell-based; settings: HL-60, 96 h
Kasumi 1 = test: Growth inhibition of human Kasumi 1 cells incubated for 4 days by WST assay; format: functional, cell-based; settings: Kasumi 1, 96 h
Raji = test: Growth inhibition of human Raji cells incubated for 4 days by WST assay; format: functional, cell-based; settings: 96 h
U-937 [15] = test: Induction of apoptosis in human U-937 cells assessed as necrotic cells at 20 uM measured after 4 hrs by Annexin PI staining based flow cytometry method (reference value: 0.00 %); format: functional
[16] = molecular target: Induced myeloid leukemia cell differentiation protein Mcl-1 (Homo sapiens, UniProt Q07820); test: Displacement of fluorescent-labeled BID-BH3 peptide from His-tagged human MCL-1 expressed in Escherichia coli BL21 (DE3) assessed as inhibition constant by fluorescence polarization-based competitive binding assay
Sequence of Induced myeloid leukemia cell differentiation protein Mcl-1 (Q07820 whole entry, the tested form may be a part): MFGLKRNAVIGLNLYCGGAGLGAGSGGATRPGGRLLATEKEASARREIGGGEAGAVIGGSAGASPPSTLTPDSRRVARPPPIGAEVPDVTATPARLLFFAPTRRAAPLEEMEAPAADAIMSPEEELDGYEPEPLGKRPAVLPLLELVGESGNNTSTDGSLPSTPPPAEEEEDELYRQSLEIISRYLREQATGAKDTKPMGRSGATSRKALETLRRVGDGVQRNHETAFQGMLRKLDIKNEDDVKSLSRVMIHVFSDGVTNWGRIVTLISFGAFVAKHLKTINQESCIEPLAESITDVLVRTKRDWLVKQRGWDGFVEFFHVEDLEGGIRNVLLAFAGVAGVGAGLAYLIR

Bcl-2-related protein A1 [17] = molecular target: T1, Bcl-2-related protein A1; test: Displacement of fluorescent-labeled BID-BH3 peptide from His-tagged human BFL-1 (1 to 151 residues) expressed in Escherichia coli BL21 (DE3) assessed as inhibition constant by fluorescence polarization-based competitive binding assay
[18] = molecular target: Apoptosis regulator Bcl-2 (Homo sapiens, UniProt P10415); test: Displacement of fluorescent-labeled BID-BH3 peptide from human BCL-2 expressed in Escherichia coli BL21 (DE3) assessed as inhibition constant by fluorescence polarization-based competitive binding assay
Sequence of Apoptosis regulator Bcl-2 (P10415 whole entry): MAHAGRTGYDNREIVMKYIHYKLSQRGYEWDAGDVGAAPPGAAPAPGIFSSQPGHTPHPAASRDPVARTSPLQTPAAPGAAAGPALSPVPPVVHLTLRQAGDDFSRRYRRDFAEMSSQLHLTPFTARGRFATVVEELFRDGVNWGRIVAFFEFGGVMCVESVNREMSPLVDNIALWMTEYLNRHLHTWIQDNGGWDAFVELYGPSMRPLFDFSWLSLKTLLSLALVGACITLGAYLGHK

Bcl-2-related protein A1 [19] = molecular target: T1, Bcl-2-related protein A1
Description: Inhibition of His-tagged human BFL-1(1 to 151 residues) expressed in Escherichia coli BL21 (DE3) by fluorescence polarization-based binding assay

Bcl-2-like protein 1 = Bcl-2-like protein 1 (Homo sapiens, UniProt Q07817); test: Displacement of fluorescent-labeled BID-BH3 peptide from human BCL-xL expressed in Escherichia coli BL21 (DE3) assessed as inhibition constant by fluorescence polarization-based competitive binding assay
Sequence of Bcl-2-like protein 1 (Q07817 whole entry): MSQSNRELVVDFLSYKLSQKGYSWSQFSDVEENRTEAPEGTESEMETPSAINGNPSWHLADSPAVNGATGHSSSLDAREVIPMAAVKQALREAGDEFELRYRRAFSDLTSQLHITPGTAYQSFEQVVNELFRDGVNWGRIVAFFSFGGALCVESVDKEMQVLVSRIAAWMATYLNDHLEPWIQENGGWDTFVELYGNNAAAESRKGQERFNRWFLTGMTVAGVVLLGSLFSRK

Bcl-2-like protein 2 = Bcl-2-like protein 2 (Homo sapiens, UniProt Q92843); test: Displacement of fluorescent-labeled BID-BH3 peptide from human BCL-W expressed in Escherichia coli BL21 (DE3) assessed as inhibition constant by fluorescence polarization-based competitive binding assay
Sequence of Bcl-2-like protein 2 (Q92843 whole entry): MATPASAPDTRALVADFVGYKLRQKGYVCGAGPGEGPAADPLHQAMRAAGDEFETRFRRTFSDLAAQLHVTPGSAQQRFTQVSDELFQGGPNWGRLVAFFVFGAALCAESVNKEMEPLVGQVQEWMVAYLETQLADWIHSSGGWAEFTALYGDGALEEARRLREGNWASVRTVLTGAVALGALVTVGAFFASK

- Ki (Bcl-2-related protein A1 [1]): 1.13 µM
Compound: C=CC(=O)N1CCN(c2c3ccc(-c4cccc(F)c4)cc3nn2CCC)CC1

- Ki (Bcl-2-related protein A1 [1]): 3.23 µM
Compound: C=CC(=O)N1CCN(c2c3ccc(-c4cccc(F)c4)cc3nn2Cc2ccc(C#N)cc2)CC1

- Ki (Bcl-2-related protein A1 [1]): 18.1 µM
Compound: C=CC(=O)N1CCN(c2c3ccc(-c4cccc(F)c4)cc3nn2CCCN(C)C)CC1

- Ki (Bcl-2-related protein A1 [1]): 3.34 µM
Compound: C=CC(=O)N1CCN(c2c3ccc(-c4cccc(F)c4)cc3nn2Cc2cccc(C#N)c2)CC1

- Ki (Bcl-2-related protein A1 [1]): > 100 µM
Compound: C=CC(=O)N1CCN(c2c3ccc(-c4cccc(F)c4)cc3nn2CCC(C)(C)C)CC1

- Ki (Bcl-2-related protein A1 [17]): 0.4 µM
- Ki [18]: 12.5 µM
- Ki (Bcl-2-like protein 1): 50 µM
- Ki (Bcl-2-like protein 2): 12.5 µM
Compound: CN1CCN(C2=C(Cl)C(=O)N(c3ccc(Cl)c(Cl)c3)C2=O)CC1

- Ki (Bcl-2-related protein A1 [1]): 18.4 µM
Compound: C=CC(=O)N1CCN(c2c3ccc(-c4cccc(F)c4)cc3nn2Cc2cccc(O)c2)CC1

- Ki (Bcl-2-related protein A1 [1]): 2.41 µM
Compound: C=CC(=O)N1CCN(c2c3ccc(-c4cccc(F)c4)cc3nn2CCCO)CC1

- Ki (Bcl-2-related protein A1 [1]): > 100 µM
Compound: C=CC(=O)N1CCN(c2c3ccc(-c4cccc(F)c4)cc3nn2CCCOC)CC1

Continued, compound first:

Compound: CCC(=O)N1CCN(c2c3ccc(-c4cccc(F)c4)cc3nn2Cc2ccccc2)CC1
- Activity (U-937 [2]): 0.03%
- Activity (U-937 [3]): 2.02%
- IC50 (K562): 10.4 µM
- Activity (U-937 [4]): 3.14%
- Activity (U-937 [5]): 1.57%
- Activity (U-937 [6]): 2.79%
- Activity (U-937 [7]): 0.03%
- Activity (U-937 [8]): 1.96%
- Activity (U-937 [9]): 1.8%
- IC50 (RPMI-8226): 11.8 µM
- IC50 (MV4-11): 8.9 µM
- IC50 (MM1.S): 16.8 µM
- Ki (Bcl-2-related protein A1 [1]): 24.1 µM
- IC50 (U-937 [10]): 9.3 µM
- Activity (U-937 [11]): 3.65%
- Activity (U-937 [12]): 2.06%
- Ki [13]: > 200 µM
- Activity (U-937 [14]): 0.16%
- IC50 (HL-60): 28.9 µM
- IC50 (Kasumi 1): 7.1 µM
- IC50 (Raji): 48.2 µM
- Activity (U-937 [15]): 0.05%

Compound: C=CC(=O)N1CCN(c2c3ccc(-c4cccc(F)c4)cc3nn2CC)CC1
- Ki (Bcl-2-related protein A1 [1]): 2.85 µM

Compound: COc1cccc(Cn2nc3cc(-c4cccc(F)c4)ccc3c2N2CCNCC2)c1
- Ki (Bcl-2-related protein A1 [1]): 3.01 µM

Compound: C=CC(=O)N1CCN(c2c3ccc(-c4cccc(F)c4)cc3nn2Cc2ccc(O)cc2)CC1
- Ki (Bcl-2-related protein A1 [1]): 10.2 µM

Compound: C=CC(=O)N1CCN(c2c3ccc(-c4cccc(F)c4)cc3nn2Cc2cccc(C(=O)O)c2)CC1
- Ki (Bcl-2-related protein A1 [1]): > 100 µM

Compound: CC1(C)CCC(CN2CCN(c3ccc(C(=O)NS(=O)(=O)c4ccc(NCC5CCOCC5)c([N+](=O)[O-])c4)c(Oc4cnc5[nH]ccc5c4)c3)CC2)=C(c2ccc(Cl)cc2)C1 [VENETOCLAX]
- Ki [16]: > 0.444 µM

Compound: C=CC(=O)N1CCN(c2c3ccc(-c4cccc(F)c4)cc3nn2Cc2ccc(Cl)cc2)CC1
- Ki (Bcl-2-related protein A1 [1]): > 100 µM

Compound: CSc1ccc(C(Nc2ccccn2)c2c(C)[nH]c3ccccc23)cc1 (stereo not given)
- Ki (Bcl-2-related protein A1 [17]): 2.9 µM
- Ki [18]: 12.9 µM

Compound: CC(=O)NC(Cc1c[nH]c2ccccc12)C(=O)NCCSSCCN(C)C (stereo not given)
- IC50 (Bcl-2-related protein A1 [19]): 1.3 µM

Compound: CC(C)(C)c1ccc(CN2CCN(S(=O)(=O)Nc3ccc(SCCc4ccccc4)cc3C(=O)O)CC2)cc1
- IC50 (K562): 18.9 µM
- IC50 (RPMI-8226): 21.3 µM
- IC50 (MV4-11): 20.8 µM
- IC50 (MM1.S): 32.6 µM
- IC50 (U-937 [10]): 19.9 µM
- Ki [13]: 2.28 µM
- IC50 (HL-60): 32.8 µM
- IC50 (Kasumi 1): 20.3 µM
- IC50 (Raji): 51.5 µM

Compound: C=CC(=O)N1CCN(c2c3ccc(-c4cccc(F)c4)cc3nn2Cc2cccc(Cl)c2)CC1
- Ki (Bcl-2-related protein A1 [1]): > 100 µM

Compound: C=CC(=O)N1CCN(c2c3ccc(-c4cccc(F)c4)cc3nn2Cc2ccc(OC)cc2)CC1
- Ki (Bcl-2-related protein A1 [1]): > 100 µM

Compound: C=CC(=O)N1CCN(c2c3ccc(-c4cccc(F)c4)cc3nn2Cc2ccc(C(=O)O)cc2)CC1
- Ki (Bcl-2-related protein A1 [1]): > 100 µM
